{
  "source": "ChEMBL document CHEMBL3045200",
  "about": "“Design, synthesis of some 2,6,9-trisubstituted purinyl thioureido derivatives and evaluation of antimicrobial activity” (2012)",
  "type_in_all_cases": "functional",
  "key": {"Aspergillus niger": {"tested_on": "Aspergillus niger", "experiment": "Antifungal activity against Aspergillus niger by broth serial microdilution method"}, "Klebsiella pneumoniae": {"tested_on": "Klebsiella pneumoniae", "experiment": "Antibacterial activity against Klebsiella pneumoniae after 24 hr by broth serial microdilution method"}, "Salmonella typhi": {"tested_on": "Salmonella typhi", "experiment": "Antibacterial activity against Salmonella enterica subsp. enterica serovar Typhi after 24 hr by broth serial microdilution method"}, "Bacillus subtilis": {"tested_on": "Bacillus subtilis", "experiment": "Antibacterial activity against Bacillus subtilis after 24 hr by broth serial microdilution method"}, "Staphylococcus aureus": {"tested_on": "Staphylococcus aureus", "experiment": "Antibacterial activity against Staphylococcus aureus after 24 hr by broth serial microdilution method"}},
  "data": [
    {"smiles": "Nc1nc(NCC(=O)NC(=S)Nc2nc3ccc([N+](=O)[O-])cc3s2)c2ncn(S(=O)(=O)c3ccccc3)c2n1", "values": [
      {"measurement": "MIC", "setting": "Aspergillus niger", "result": 510, "unit": "µM"},
      {"measurement": "MIC", "setting": "Klebsiella pneumoniae", "result": 510, "unit": "µM"},
      {"measurement": "MIC", "setting": "Salmonella typhi", "result": 510, "unit": "µM"},
      {"measurement": "MIC", "setting": "Bacillus subtilis", "result": 510, "unit": "µM"},
      {"measurement": "MIC", "setting": "Staphylococcus aureus", "result": 510, "unit": "µM"}
    ]},
    {"smiles": "Nc1nc(NCC(=O)NC(=S)Nc2nc3ccc(Cl)cc3s2)c2ncn(S(=O)(=O)c3ccccc3)c2n1", "values": [
      {"measurement": "MIC", "setting": "Aspergillus niger", "result": 350, "unit": "µM"},
      {"measurement": "MIC", "setting": "Klebsiella pneumoniae", "result": 350, "unit": "µM"},
      {"measurement": "MIC", "setting": "Salmonella typhi", "result": 530, "unit": "µM"},
      {"measurement": "MIC", "setting": "Bacillus subtilis", "result": 350, "unit": "µM"},
      {"measurement": "MIC", "setting": "Staphylococcus aureus", "result": 520, "unit": "µM"}
    ]},
    {"smiles": "CC1(C)S[C@@H]2[C@H](NC(=O)[C@H](N)c3ccccc3)C(=O)N2[C@H]1C(=O)O", "note": "[AMPICILLIN]", "values": [
      {"measurement": "MIC", "setting": "Klebsiella pneumoniae", "result": 130, "unit": "µM"},
      {"measurement": "MIC", "setting": "Salmonella typhi", "result": 200, "unit": "µM"},
      {"measurement": "MIC", "setting": "Bacillus subtilis", "result": 270, "unit": "µM"},
      {"measurement": "MIC", "setting": "Staphylococcus aureus", "result": 130, "unit": "µM"}
    ]},
    {"smiles": "Nc1nc(NCC(=O)NC(=S)Nc2nc3c([N+](=O)[O-])cccc3s2)c2ncn(S(=O)(=O)c3ccccc3)c2n1", "values": [
      {"measurement": "MIC", "setting": "Aspergillus niger", "result": 510, "unit": "µM"},
      {"measurement": "MIC", "setting": "Klebsiella pneumoniae", "result": 510, "unit": "µM"},
      {"measurement": "MIC", "setting": "Salmonella typhi", "result": 510, "unit": "µM"},
      {"measurement": "MIC", "setting": "Bacillus subtilis", "result": 510, "unit": "µM"},
      {"measurement": "MIC", "setting": "Staphylococcus aureus", "result": 510, "unit": "µM"}
    ]},
    {"smiles": "Cc1ccc2nc(NC(=S)NC(=O)CNc3nc(N)nc4c3ncn4S(=O)(=O)c3ccccc3)sc2c1", "values": [
      {"measurement": "MIC", "setting": "Aspergillus niger", "result": 540, "unit": "µM"},
      {"measurement": "MIC", "setting": "Klebsiella pneumoniae", "result": 540, "unit": "µM"},
      {"measurement": "MIC", "setting": "Salmonella typhi", "result": 530, "unit": "µM"},
      {"measurement": "MIC", "setting": "Bacillus subtilis", "result": 540, "unit": "µM"},
      {"measurement": "MIC", "setting": "Staphylococcus aureus", "result": 540, "unit": "µM"}
    ]},
    {"smiles": "Nc1nc(NCC(=O)NC(=S)Nc2nc3cc([N+](=O)[O-])ccc3s2)c2ncn(S(=O)(=O)c3ccccc3)c2n1", "values": [
      {"measurement": "MIC", "setting": "Aspergillus niger", "result": 510, "unit": "µM"},
      {"measurement": "MIC", "setting": "Klebsiella pneumoniae", "result": 510, "unit": "µM"},
      {"measurement": "MIC", "setting": "Salmonella typhi", "result": 510, "unit": "µM"},
      {"measurement": "MIC", "setting": "Bacillus subtilis", "result": 510, "unit": "µM"},
      {"measurement": "MIC", "setting": "Staphylococcus aureus", "result": 510, "unit": "µM"}
    ]},
    {"smiles": "Nc1nc(NCC(=O)NC(=S)Nc2nc3ccccc3s2)c2ncn(S(=O)(=O)c3ccccc3)c2n1", "values": [
      {"measurement": "MIC", "setting": "Aspergillus niger", "result": 550, "unit": "µM"},
      {"measurement": "MIC", "setting": "Klebsiella pneumoniae", "result": 550, "unit": "µM"},
      {"measurement": "MIC", "setting": "Salmonella typhi", "result": 560, "unit": "µM"},
      {"measurement": "MIC", "setting": "Bacillus subtilis", "result": 1290, "unit": "µM"},
      {"measurement": "MIC", "setting": "Staphylococcus aureus", "result": 560, "unit": "µM"}
    ]},
    {"smiles": "OC(Cn1cncn1)(Cn1cncn1)c1ccc(F)cc1F", "note": "[FLUCONAZOLE]", "values": [
      {"measurement": "MIC", "setting": "Aspergillus niger", "result": 350, "unit": "µM"}
    ]},
    {"smiles": "Nc1nc(NCC(=O)NC(=S)Nc2nc3c(Cl)cccc3s2)c2ncn(S(=O)(=O)c3ccccc3)c2n1", "values": [
      {"measurement": "MIC", "setting": "Aspergillus niger", "result": 350, "unit": "µM"},
      {"measurement": "MIC", "setting": "Klebsiella pneumoniae", "result": 170, "unit": "µM"},
      {"measurement": "MIC", "setting": "Salmonella typhi", "result": 350, "unit": "µM"},
      {"measurement": "MIC", "setting": "Bacillus subtilis", "result": 350, "unit": "µM"},
      {"measurement": "MIC", "setting": "Staphylococcus aureus", "result": 350, "unit": "µM"}
    ]},
    {"smiles": "O=C(O)c1cn(C2CC2)c2cc(N3CCNCC3)c(F)cc2c1=O", "note": "[CIPROFLOXACIN]", "values": [
      {"measurement": "MIC", "setting": "Klebsiella pneumoniae", "result": 120, "unit": "µM"},
      {"measurement": "MIC", "setting": "Salmonella typhi", "result": 190, "unit": "µM"},
      {"measurement": "MIC", "setting": "Bacillus subtilis", "result": 250, "unit": "µM"},
      {"measurement": "MIC", "setting": "Staphylococcus aureus", "result": 190, "unit": "µM"}
    ]},
    {"smiles": "COc1ccc2sc(NC(=S)NC(=O)CNc3nc(N)nc4c3ncn4S(=O)(=O)c3ccccc3)nc2c1", "values": [
      {"measurement": "MIC", "setting": "Aspergillus niger", "result": 350, "unit": "µM"},
      {"measurement": "MIC", "setting": "Klebsiella pneumoniae", "result": 530, "unit": "µM"},
      {"measurement": "MIC", "setting": "Salmonella typhi", "result": 350, "unit": "µM"},
      {"measurement": "MIC", "setting": "Bacillus subtilis", "result": 350, "unit": "µM"},
      {"measurement": "MIC", "setting": "Staphylococcus aureus", "result": 530, "unit": "µM"}
    ]},
    {"smiles": "Nc1nc(NCC(=O)NC(=S)Nc2nc3ccc(F)cc3s2)c2ncn(S(=O)(=O)c3ccccc3)c2n1", "values": [
      {"measurement": "MIC", "setting": "Aspergillus niger", "result": 360, "unit": "µM"},
      {"measurement": "MIC", "setting": "Klebsiella pneumoniae", "result": 180, "unit": "µM"},
      {"measurement": "MIC", "setting": "Salmonella typhi", "result": 360, "unit": "µM"},
      {"measurement": "MIC", "setting": "Bacillus subtilis", "result": 360, "unit": "µM"},
      {"measurement": "MIC", "setting": "Staphylococcus aureus", "result": 530, "unit": "µM"}
    ]},
    {"smiles": "COc1ccc2nc(NC(=S)NC(=O)CNc3nc(N)nc4c3ncn4S(=O)(=O)c3ccccc3)sc2c1", "values": [
      {"measurement": "MIC", "setting": "Aspergillus niger", "result": 180, "unit": "µM"},
      {"measurement": "MIC", "setting": "Klebsiella pneumoniae", "result": 350, "unit": "µM"},
      {"measurement": "MIC", "setting": "Salmonella typhi", "result": 540, "unit": "µM"},
      {"measurement": "MIC", "setting": "Bacillus subtilis", "result": 180, "unit": "µM"},
      {"measurement": "MIC", "setting": "Staphylococcus aureus", "result": 350, "unit": "µM"}
    ]}
  ]
}
